The nature of data set [1]: Absorption spectra (Cary 5000 UV-Vis-NIR spectrophotometer, 1 cm quartz cell). It is filed as physicochemical. Conditions: ring closed lactone form, FIG. 2. As to the method: (§1) All chemicals and solvents were purchased from commercial suppliers and used without further purification unless other-wise specified. ^1H NMR (500 MHz) and ^13C NMR ([…]) spectra were recorded in deuterated solvents on a Bruker ADVANCE 500 NMR Spectrometer. J values are expressed in Hz and quoted chemical shifts are in ppm downfield from tetramethylsilane (TMS) reference using the residual protonated solvents as an internal standard. The signals have been designated as follows: s (singlet), d (doublet), t (triplet), m (multiplets). High resolution mass spectra (HRMS) were deter-mined on Bruker-micrOTOF-Q II Mass Spectrometer. Absorption spectra were acquired using a Cary 5000 UV-Vis-NIR spectrophotometer in a 1 cm quartz cell. Fluorescence spectra were acquired using a Horiba QuantaMaster 8075-21 spectrofluorometer with xenon lamp excitation and liquid nitrogen cooled indium gallium arsenide solid state detector. […] The relative quantum yield of the rhodindolizine dye was calculated using a known technique. […] The absorbance point for the quantum yield was chosen because of similar overlap in the absorption spectra between the standard and the rhodindolizine dye. […]
(§2) Additionally, a range of solvent polarities were evaluated to access the polarity of RhIndz in the ground-state via absorption spectroscopy and in the excited-state via fluorescence spectroscopy (Table 6).

Data set [2] is described as follows: Fluorescence spectra (Horiba QuantaMaster 8075-21 spectrofluorometer, InGaAs detector). In kind it is physicochemical. To be noted: closed spirolactone structure. As for the experimental part:
as §1, §2

For `Cc1c(-c2ccccc2)c(-c2ccc3c(c2)Oc2cc(-c4c(-c5ccccc5)c(C)c5ccccn45)ccc2C32OC(=O)c3ccccc32)n2ccccc12` [RhIndz, 3′,6′-bis(1-methyl-2-phenylindolizin-3-yl)-3H-spiro[2-benzofuran-1,9′-xanthen]-3-one], in data set [1], the absorption maximum is listed as 375 nm. In addition, the “fluorescence of closed spirocyclic form” value in data set [2] was “non-fluorescent”.

The record behind these values is US12173212B2, “Design, synthesis, and photophysical properties of a novel NIR II dye for biological imaging and optoelectronic devices” (University of Mississippi, priority 2020, dated 2024).
